Experimental findings from ChEMBL document CHEMBL1201862, “PubChem BioAssay data set” (2004) are described below.

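Grown in 96-well plates, cells were treated for 48 hours with each compound at five concentrations. Insufficient inhibition: endpoint recorded as highest concentration tested. GI50 marks 50% less growth.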 Active and inactive are the calls of the source. Cut-off read from the data, not from the text of the source: active = GI50 up to about 1.1 µM and inactive = higher.

Holding throughout (assay): NCI-60 cell line screen, 48 h
Test [1] has as its system RXF 393.
Test [2] concerns SF-539.
For test [3], the system named is OVCAR-5.
For test [4], the system named is HT-29.
Test [5] deals with UO-31.
In test [6] the test system is NCI-H522.
Test [7] relates to U-251.
Test [8] relates to HCT-15.
For test [9], the system named is NCI-H226.
Test [10] relates to MDA-MB-231.
Test [11] relates to SK-MEL-2.
The subject of test [12] is SW-620.
The test system of test [13] is IGROV-1.
Test [14] deals with KM12.
Test [15] concerns UACC-257.
In test [16] the test system is A549.
For test [17], the system named is HL-60.
In test [18] the test system is EKVX.
Test [19] deals with MDA-N.
Test [20] concerns OVCAR-4.

Consider `O=c1c(-c2ccc(Cl)cc2)nnc2n(Cc3ccccc3)c3ccccc3n12`, for which the GI50 in [1] was 13.2 µM (inactive); in [2], 13.6 µM (inactive); in [3], 48.9 µM (inactive); in test [4], 52.6 µM (inactive); in [5] it was 44.4 µM (inactive); in test [6], 16.8 µM (inactive). Also, the GI50 is 23.7 µM (inactive) in [7]; over 100 µM in test [8]; 23.7 µM (inactive) in test [9]; 20 µM (inactive) in test [10]; 44.2 µM (inactive) in test [11]; > 100 µM (inactive) in test [12]. The GI50 in test [13] was 18.7 µM (inactive); in test [14], 28.9 µM (inactive); in [15], 51.3 µM (inactive); in [16], 25.5 µM (inactive); in [17] it was 50 µM (inactive); in test [18], 38.4 µM (inactive). The GI50 was > 100 µM (inactive) in test [19] and 5.94 µM (inactive) in [20].

In the case of `COc1ccc(-c2cc(-c3cc(F)c(Cl)cc3Cl)[nH]n2)cc1OC`, the GI50 in [1] is 15.1 µM (inactive); in test [2], 15.9 µM (inactive); in [3], > 100 µM (inactive); in [4] it was 22.1 µM (inactive); in [5], 85.3 µM (inactive); in test [6], 20.2 µM (inactive). Also, the GI50 is 26.9 µM (inactive) in test [7]; 21.2 µM in test [8]; 20.8 µM (inactive) in test [9]; 30.4 µM (inactive) in [10]; 79.6 µM (inactive) in test [11]; 29.6 µM (inactive) in test [12]. For the same molecule, the GI50 is 19.2 µM (inactive) in test [13]; 26.4 µM (inactive) in test [14]; 32.7 µM (inactive) in test [15]; 40.7 µM (inactive) in test [16]; 15.6 µM (inactive) in [17]; 22.2 µM (inactive) in test [18]. For the same molecule, the GI50 in test [19] is 52.8 µM (inactive); in [20], 32.4 µM (inactive).

On to `O=c1[nH]c2cc([N+](=O)[O-])c(N/N=C/c3ccc(Cl)cc3Cl)c([N+](=O)[O-])c2[nH]1`, for which the GI50 in [1] was 18.2 µM (inactive); in test [2], > 100 µM (inactive); in test [3], 70 µM (inactive); in test [4], > 100 µM (inactive); in test [5], 41.6 µM (inactive); in [6], 31.1 µM (inactive). Moreover, the GI50 in test [7] is 34.4 µM (inactive); in test [8], 40.3 µM; in test [9], 58.3 µM (inactive); in [10] it was 13.1 µM (inactive); in test [11], > 100 µM (inactive); in [12], 26.7 µM (inactive). Moreover, the GI50 in test [13] is 25.1 µM (inactive); in test [14], 5.85 µM (inactive); in test [15] it was > 100 µM (inactive); in [16], 37.9 µM (inactive); in test [17], > 100 µM (inactive); in [18], > 100 µM (inactive). The GI50 in test [19] was 7.48 µM (inactive); in [20], 13.6 µM (inactive).

In the case of `CC(C)(C)c1cc2c(OC/C=C/c3ccccc3)c(c1)Cc1cc(C(C#N)(OC/C=C/c3ccccc3)OC/C=C/c3ccccc3)cc(c1OC/C=C\c1ccccc1)Cc1cc(C(C)(C)C)cc(c1OC/C=C/c1ccccc1)Cc1cc(C(C#N)(OC/C=C\c3ccccc3)OC/C=C/c3ccccc3)cc(c1OC/C=C\c1ccccc1)C2` (stereo not given), the GI50 in test [1], in test [2], in [3], in [4], in test [5] and in test [6] was > 100 µM (inactive) throughout. Further, the GI50 is > 100 µM (inactive) in test [7]; over 100 µM in test [8]; > 100 µM (inactive) in test [9]; 30.4 µM (inactive) in test [10]; > 100 µM (inactive) in test [11]; > 100 µM (inactive) in test [12]. Besides, the GI50 in test [13], in test [14], in test [15], in test [16], in test [17] and in test [18] was > 100 µM (inactive) in each case. Further, the GI50 in test [19] and in test [20] was > 100 µM (inactive) each time.

For `Cc1cccc(CC(Cc2ccc(C)cc2C(=O)O)C(=O)O)c1` (stereo not given), the GI50 in [1], in test [2], in [3], in test [4], in test [5] and in [6] was > 100 µM (inactive) throughout. The GI50 in [7] is > 100 µM (inactive); in test [8] it was over 100 µM; in [9] it was > 100 µM (inactive); in [10], > 100 µM (inactive); in test [11] it was > 100 µM (inactive); in test [12], > 100 µM (inactive). The GI50 in test [13], in test [14], in test [15], in [16], in [17] and in [18] was > 100 µM (inactive) in each case. The GI50 in test [19] and in [20] was > 100 µM (inactive) throughout.
